Among the data in the OligoGym collection are target mRNA inhibition values, retold here.

Data set [1] addresses SNHG14. The following applies: ASO, Human Neuronal Cell, 7.5 µM.
The target of data set [2] is DGAT2. The conditions noted are these: ASO.

“And” between values parts separate entries of the source, which are not always exact repeats. Equal values may be shown once. After the bases stand the sugars from the 5' end (letter, count) and the backbone: PS all phosphorothioate, else s phosphorothioate and o phosphodiester by linkage. Methylation of C is not given here. e = 2'-O-(2-methoxyethyl) (MOE); l = locked nucleic acid (LNA); d = 2'-deoxy (DNA)

For “AAAATCTCAACTACCATTT (sugars lddddlddddddlllldll, PS)”, the target mRNA inhibition in data set [1] is 45%. Still for that read-out and setting: next, “AAAATCTCAACTACCATTT (sugars ldlldlddddddddlldll, PS)”: 30%. Sequence “AAAATCTCAACTACCATTTT (sugars l1 d12 l4 d1 l2, PS)” had a target mRNA inhibition in data set [1] of 42%.

As for “AAAATCTCAACTACCATTTT (sugars l3 d11 l2 d1 l3, PS)”, in data set [1], the target mRNA inhibition was determined as 12%. Same read-out and setting: as for “AAAATCTCAACTACCATTTT (sugars ldllddldddddddllddll, PS)”, the figure is 5%. Consider “GTTGGTCTTTTTGGCTGCCC (sugars e5 d10 e5, PS)”, for which the target mRNA inhibition is 77% and 67% in data set [2] (HepG2, 2.5 µM); 88% and 86% in data set [2] (HepG2, 10 µM). For the sequence “GTTTACTGCATAGCTGAGCA (sugars e5 d10 e5, PS)”, the target mRNA inhibition in data set [2] (HepG2, 2.5 µM) is 69% and 82%; in data set [2] (HepG2, 10 µM) it was 79% and 96%. As for “GTTTAGGCTATGGTCTGAGC (sugars e5 d10 e5, PS)”, the target mRNA inhibition in data set [2] (HepG2, 2.5 µM) is 85% and 75%; in data set [2] (HepG2, 10 µM) it was 92%.

In the case of “GTTTGCTCAGTTCTTCCAAC (sugars e5 d10 e5, PS)”, the target mRNA inhibition in data set [2] (HepG2, 2.5 µM) was 83% and 78%; in data set [2] (HepG2, 10 µM) it was 94% and 90%. Sequence “TAACCCACAGACACCCATGA (sugars e5 d10 e5, PS)” yielded a target mRNA inhibition in data set [2] (HepG2, 0.12 µM) of 14%. On the same count and under the same terms, as for “TAATCTGCTGCTCAGAAGGC (sugars e5 d10 e5, PS)”, the figure is 36%; as for “TAATTTCTTTTAAATAACCC (sugars e5 d10 e5, PS)”, 0%. As for “TAGAGCACTTGATCTGGGAC (sugars e5 d10 e5, PS)”, the target mRNA inhibition was 38% and 46% in data set [2] (HepG2, 2.5 µM); 81% and 85% in data set [2] (HepG2, 10 µM). As for “TAGCATTGCCACTCCCATTC (sugars e5 d10 e5, PS)”, in data set [2] (HepG2, 0.12 µM), the target mRNA inhibition was 71%. “TAGCTCTCAGTGAAGCTGGA (sugars e5 d10 e5, PS)”: the target mRNA inhibition in data set [2] (HepG2, 2.5 µM) is 84% and 81%; in data set [2] (HepG2, 10 µM), 90% and 91%. For the sequence “TAGGCATGCTTCCTCCCACT (sugars e5 d10 e5, PS)”, the target mRNA inhibition turned out to be 65% in data set [2] (HepG2, 2.5 µM) and 84% in data set [2] (HepG2, 10 µM).

“TAGGCTTTAGAAATTCACCA (sugars e5 d10 e5, PS)”: the target mRNA inhibition in data set [2] (HepG2, 2.5 µM) is 71% and 72% and 76%; in data set [2] (HepG2, 10 µM), 89% and 82% and 91%. Sequence “TATAATTTCTTTTAAATAAC (sugars e5 d10 e5, PS)” showed a target mRNA inhibition in data set [2] (HepG2, 0.12 µM) of 0%.

Sequence “TATGCCTGGGAACTTCTTGC (sugars e5 d10 e5, PS)” gave a target mRNA inhibition in data set [2] (HepG2, 0.12 µM) of 26%. In data set [2] (HepG2, 0.12 µM), “TCAAACCTAGGTTCAGACTT (sugars e5 d10 e5, PS)” showed a target mRNA inhibition of 47%. In data set [2] (HepG2, 0.12 µM), “TCACCAGCTGGATGGGAAAG (sugars e5 d10 e5, PS)” came in with a target mRNA inhibition of 22%. Consider “TCACCAGGGCCTCCATGTAC (sugars e3 d14 e3, PS)”, for which the target mRNA inhibition in data set [2] (HepG2, 0.12 µM) was 68%. With “TCAGAGACTCAGCCGCACCC (sugars e5 d10 e5, PS)”, in data set [2] (HepG2, 0.12 µM), the target mRNA inhibition is 43% and 55%. With “TCAGCAGGTTGTGTGTCTTC (sugars e2 d13 e5, PS)”, the target mRNA inhibition in data set [2] (HepG2, 0.12 µM) was determined as 57%. As to “TCAGCAGGTTGTGTGTCTTC (sugars e5 d10 e5, PS)”, the target mRNA inhibition in data set [2] (HepG2, 0.12 µM) worked out at 56%; in data set [2] (HepG2, 2.5 µM), 3%. In the case of “TCATACTAGACTATGCAGCC (sugars e5 d10 e5, PS)”, the target mRNA inhibition in data set [2] (HepG2, 2.5 µM) stood at 72%; in data set [2] (HepG2, 10 µM) it was 85%.

“TCATACTTACTGTTCAGCAG (sugars e5 d10 e5, PS)”: the target mRNA inhibition in data set [2] (HepG2, 2.5 µM) was 74% and 65%; in data set [2] (HepG2, 10 µM), 93% and 89%. As to “TCATCTTTCCAGATCCGGAC (sugars e5 d10 e5, PS)”, the target mRNA inhibition was determined as 76% in data set [2] (HepG2, 2.5 µM) and 89% in data set [2] (HepG2, 10 µM).

Consider “TCCAAGTGTACTTTGAGCAT (sugars e5 d10 e5, PS)”, for which the target mRNA inhibition in data set [2] (HepG2, 2.5 µM) was 58% and 54%; in data set [2] (HepG2, 10 µM), 84% and 91%. In data set [2] (HepG2, 0.12 µM), “TCCAGGACCCTGGACATGAT (sugars e5 d10 e5, PS)” had a target mRNA inhibition of 50%. With “TCCATGTCAGAGAGGCTCAG (sugars e5 d10 e5, PS)”, the target mRNA inhibition in data set [2] (HepG2, 2.5 µM) was 54%; in data set [2] (HepG2, 10 µM), 91%. Take “TCCATTTTTTACCCAACCTT (sugars e5 d10 e5, PS)”: the target mRNA inhibition is 56% and 49% in data set [2] (HepG2, 2.5 µM); 93% and 94% in data set [2] (HepG2, 10 µM). As for “TCCCCTTGGCAGAGAAACTG (sugars e5 d10 e5, PS)”, the target mRNA inhibition in data set [2] (HepG2, 0.12 µM) was found to be 47%. For “TCCGGACTGAATGTCACCTC (sugars e5 d10 e5, PS)”, the target mRNA inhibition in data set [2] (HepG2, 2.5 µM) is 75%; in data set [2] (HepG2, 10 µM), 85% and 90%. With “TCGCTAGAGTACAAGTTCTC (sugars e5 d10 e5, PS)”, the target mRNA inhibition was found to be 88% in data set [2] (HepG2, 2.5 µM) and 93% in data set [2] (HepG2, 10 µM).

Regarding “TCTCATTCATCTGGGCCCTG (sugars e5 d10 e5, PS)”, the target mRNA inhibition was 65% in data set [2] (HepG2, 2.5 µM) and 78% in data set [2] (HepG2, 10 µM).

With “TCTCATTTCTTATCTTCAAT (sugars e5 d10 e5, PS)”, the target mRNA inhibition in data set [2] (HepG2, 2.5 µM) is 60% and 72%; in data set [2] (HepG2, 10 µM), 88% and 93%. On to “TCTCCTGTTTGATGGGT (sugars e3 d10 e4, PS)”, for which the target mRNA inhibition came out at 41% in data set [2] (HepG2, 2.5 µM) and 63% in data set [2] (HepG2, 10 µM).
